# Laboratory results published in US11760773B2, “Small molecule drug conjugates of gemcitabine monophosphate” (MaveriX Oncology, Inc., priority 2018, dated 2023).
# Assays:
# [1] = Compound 1 and gemcitabine plasma PK in the male cynomolgus monkey (study h); type: in vivo; conditions: plasma
# Description: Objectives: to compare the plasma pharmacokinetics and stability of the Compound 1 with Int 1-4 and in plasma following a single intravenous infusion administration of Compound 1 at 5 mg/kg and 10 mg/kg with equimolar gemcitabine at 2.28 mg/kg in male cynomolgous monkeys.
# PK measurements: compare PK parameters C0, CL, Vdss, Cmax, tmax, t1/2, AUC(0-t), AUC(0-inf), MRT(0-t), MRT(0-inf) for Compound 1 and Int 1-4 with gemcitabine.
# [2] = Comparative dog plasma PK of Int 1-4 versus gemcitabine (study k); type: in vivo; conditions: male beagle dog
# Description: Objectives: to compare the plasma pharmacokinetics and stability of Int-4 in plasma following single intravenous infusion administration of Int 1-4 at 5 mg/kg and 10 mg/kg versus gemcitabine at 5 mg/kg in the male Beagle dog
# [3] = Comparative PK of Int 1-4 versus gemcitabine in rat plasma (study i); type: in vivo, Sprague-Dawley rats; conditions: plasma, Sprague-Dawley rat
# Excerpt: PK measurements: compare PK parameters C0, CL, Vdss, Cmax, tmax, t1/2, AUC(0-t), AUC(0-inf), MRT(0-t), MRT(0-inf) for Int 1-4 and gemcitabine.
# [4] = Int 1-4 dog plasma PK (study j); type: in vivo; conditions: male beagle dog
# Description: Objectives: to compare the plasma pharmacokinetics and stability of Int 1-4 in plasma following single intravenous infusion administration of t 1-4 at 10 mg/kg and 20 mg/kg in the male Beagle dog.
# [5] = Int 1-4 and gemcitabine comparative PK in male cynomolgus monkey (study g); type: in vivo; conditions: plasma, male cynomolgus monkey
# Description: Objectives: to compare the plasma pharmacokinetics and stability of Int 1-4 versus gemcitabine in plasma following single intravenous infusion administration of Int 1-4 at 5 mg/kg and 10 mg/kg with equimolar gemcitabine at 2.65 mg/kg and 5.29 mg/kg in male cynomolgous monkeys
# PK measurements: compare PK parameters C0, CL, Vdss, Cmax, tmax, t1/2, AUC(0-t), AUC(0-inf), MRT(0-t), MRT(0-inf) for Int 1-4 with gemcitabine
# [6] = Comparative plasma PK of Compound 1 versus Int 1-4 in male CD-1 mice (study b); type: in vivo
# Description: Objectives: to compare the plasma pharmacokinetics and stability of Compound 1 with its non-phosphorylated SMDC analog (Int 1-4) and in plasma following a single intravenous infusion administration of Compound 1 at 11.6 mg/kg and 23.2 mg/kg with Int 1-4 (formulation F1 & F2) at 10.0 mg/kg in male CD-1 mice
# PK measurements: compare PK parameters C0, CL, Vdss, Cmax, tmax, t1/2, AUC(0-t), AUC(0-inf), MRT(0-t), MRT(0-inf) for Compound 1 and Int 1-4
# [7] = after iv gemcitabine 2.28 mg/kg
# [8] = after iv Int 1-4 5 mg/kg (study k)
# [9] = after iv Int 1-4 10 mg/kg (study k)
# [10] = after iv gemcitabine 5.29 mg/kg
# [11] = after iv gemcitabine 4.47 mg/kg
# [12] = after iv Int 1-4 10 mg/kg (study j)
# [13] = after iv Int 1-4 20 mg/kg (study j)
# [14] = after iv Int 1-4 5 mg/kg (study g)
# [15] = after iv Int 1-4 10 mg/kg (study g)
# [16] = after iv gemcitabine 2.65 mg/kg
# [17] = after iv Int 1-4 10.0 mg/kg, Formulation 1
# [18] = after iv Int 1-4 10.0 mg/kg, Formulation 2
smiles,measurement,setting,value
O=c1ccn(C2OC(CO)C(O)C2(F)F)c(=O)[nH]1 (stereo not drawn) [dFdU],AUC0-last,[1]; after iv Compound 1 5 mg/kg,3397 ng·h/mL
same,AUC(0-inf),[1]; after iv Compound 1 5 mg/kg,8767 ng·h/mL
same,Cmax,[1]; after iv Compound 1 5 mg/kg,321 ng/mL
same,MRT0-inf,[1]; after iv Compound 1 5 mg/kg,34.42 h
same,MRT0-last,[1]; after iv Compound 1 5 mg/kg,8.98 h
same,Tmax,[1]; after iv Compound 1 5 mg/kg,0.39 h
same,t1/2,[1]; after iv Compound 1 5 mg/kg,24.00 h
same,AUC0-last,[1]; [7],12467 ng·h/mL
same,AUC(0-inf),[1]; [7],17600 ng·h/mL
same,Cmax,[1]; [7],2153 ng/mL
same,MRT0-inf,[1]; [7],18.06 h
same,MRT0-last,[1]; [7],8.21 h
same,Tmax,[1]; [7],0.04 h
same,t1/2,[1]; [7],12.90 h
same,AUC0-last,[2]; [8],9863 ng·h/mL
same,AUC(0-inf),[2]; [8],13743 ng·h/mL
same,Cmax,[2]; [8],715 ng/mL
same,MRT0-inf,[2]; [8],18.22 h
same,MRT0-last,[2]; [8],9.89 h
same,Tmax,[2]; [8],4.00 h
same,t1/2,[2]; [8],11.79 h
same,AUC0-last,[2]; [9],11700 ng·h/mL
same,AUC(0-inf),[2]; [9],13800 ng·h/mL
same,Cmax,[2]; [9],936 ng/mL
same,MRT0-inf,[2]; [9],12.99 h
same,MRT0-last,[2]; [9],8.94 h
same,Tmax,[2]; [9],2.00 h
same,t1/2,[2]; [9],8.40 h
same,AUC0-last,[2]; [10],20133 ng·h/mL
same,AUC(0-inf),[2]; [10],23967 ng·h/mL
same,Cmax,[2]; [10],1813 ng/mL
same,MRT0-inf,[2]; [10],13.31 h
same,MRT0-last,[2]; [10],8.71 h
same,Tmax,[2]; [10],3.00 h
same,AUC0-last,[3]; after iv Int 1-4 10.0 mg/kg,288 ng·h/mL
same,Cmax,[3]; after iv Int 1-4 10.0 mg/kg,66.5 ng/mL
same,MRT0-last,[3]; after iv Int 1-4 10.0 mg/kg,5.55 h
same,Tmax,[3]; after iv Int 1-4 10.0 mg/kg,8.00 h
same,AUC0-last,[3]; [11],1085 ng·h/mL
same,Cmax,[3]; [11],222 ng/mL
same,MRT0-last,[3]; [11],5.25 h
same,Tmax,[3]; [11],8.00 h
same,AUC0-last,[4]; [12],13167 ng·h/mL
same,AUC(0-inf),[4]; [12],14300 ng·h/mL
same,Cmax,[4]; [12],1173 ng/mL
same,MRT0-inf,[4]; [12],15.33 h
same,MRT0-last,[4]; [12],9.20 h
same,Tmax,[4]; [12],3.33 h
same,t1/2,[4]; [12],10.0 h
same,AUC0-last,[4]; [13],31267 ng·h/mL
same,AUC(0-inf),[4]; [13],40233 ng·h/mL
same,Cmax,[4]; [13],2873 ng/mL
same,MRT0-inf,[4]; [13],15.97 h
same,MRT0-last,[4]; [13],9.27 h
same,Tmax,[4]; [13],2.00 h
same,t1/2,[4]; [13],10.53 h
same,AUC0-last,[5]; [14],4117 ng·h/mL
same,AUC(0-inf),[5]; [14],5555 ng·h/mL
same,Cmax,[5]; [14],302 ng/mL
same,MRT0-inf,[5]; [14],24.01 h
same,MRT0-last,[5]; [14],10.31 h
same,Tmax,[5]; [14],1.69 h
same,t1/2,[5]; [14],16.86 h
same,AUC0-last,[5]; [15],5120 ng·h/mL
same,AUC(0-inf),[5]; [15],7903 ng·h/mL
same,Cmax,[5]; [15],595 ng/mL
same,MRT0-inf,[5]; [15],18.02 h
same,MRT0-last,[5]; [15],8.30 h
same,Tmax,[5]; [15],0.67 h
same,t1/2,[5]; [15],12.87 h
same,AUC0-last,[5]; [16],7703 ng·h/mL
same,AUC(0-inf),[5]; [16],8837 ng·h/mL
same,Cmax,[5]; [16],1973 ng/mL
same,MRT0-inf,[5]; [16],9.35 h
same,MRT0-last,[5]; [16],6.41 h
same,Tmax,[5]; [16],0.09 h
same,t1/2,[5]; [16],5.89 h
same,AUC0-last,[6]; after iv Compound 1 11.6 mg/kg,967 ng·h/mL
same,AUC(0-inf),[6]; after iv Compound 1 11.6 mg/kg,786 ng·h/mL
same,Cmax,[6]; after iv Compound 1 11.6 mg/kg,220 ng/mL
same,MRT0-inf,[6]; after iv Compound 1 11.6 mg/kg,3.81 h
same,MRT0-last,[6]; after iv Compound 1 11.6 mg/kg,3.70 h
same,Tmax,[6]; after iv Compound 1 11.6 mg/kg,3.25 h
same,t1/2,[6]; after iv Compound 1 11.6 mg/kg,2.38 h
same,AUC0-last,[6]; after iv Compound 1 23.2 mg/kg,1960 ng·h/mL
same,AUC(0-inf),[6]; after iv Compound 1 23.2 mg/kg,1830 ng·h/mL
same,Cmax,[6]; after iv Compound 1 23.2 mg/kg,378 ng/mL
same,MRT0-inf,[6]; after iv Compound 1 23.2 mg/kg,4.48 h
same,MRT0-last,[6]; after iv Compound 1 23.2 mg/kg,3.65 h
same,Tmax,[6]; after iv Compound 1 23.2 mg/kg,4.00 h
same,t1/2,[6]; after iv Compound 1 23.2 mg/kg,2.86 h
same,AUC0-last,[6]; [17],983 ng·h/mL
same,AUC(0-inf),[6]; [17],1124 ng·h/mL
same,Cmax,[6]; [17],213 ng/mL
same,MRT0-inf,[6]; [17],4.67 h
same,MRT0-last,[6]; [17],3.59 h
same,Tmax,[6]; [17],4.00 h
same,t1/2,[6]; [17],3.06 h
same,AUC0-last,[6]; [18],1106 ng·h/mL
same,AUC(0-inf),[6]; [18],1625 ng·h/mL
same,Cmax,[6]; [18],236 ng/mL
same,MRT0-inf,[6]; [18],5.89 h
same,MRT0-last,[6]; [18],3.95 h
same,Tmax,[6]; [18],4.00 h
same,t1/2,[6]; [18],4.15 h
